Results published in patent publication US10065951B2, “Small molecule transcription modulators of bromodomains” (Icahn School of Medicine at Mount Sinai, priority 2014, dated 2018).

Key:
[1] = tested on: CBP occupancy at promoters (Lmnb1 transcription start site); test: Chromatin immunoprecipitation (ChIP) of CBP and H3K18ac at gene promoters; assay type: cell-based; settings: 10 nM, one day
Protocol: FIG. 9 illustrates the ChIP analysis of samples isolated from cells cultured as previously described and then precipitated using antibodies specific for CBP, and for H3K18ac. A mock ChIP (No Antibody) was used as negative control. The amount of chromatin recovered at the Lmnb1 transcription start site was measured by qPCR and expressed as percentage of input for each sample. Error bars are s.e.m. of three independent experiments (*p<0.05, **p<0.01 two-tail t test).
Oligodendrocyte progenitors (4×10^6) were crosslinked in 1% formaldehyde, lysed in nuclear lysis buffer (50 mM Tris-HCL (pH 8.0), 10 mM EDTA, 1% SDS, Protease Inhibitors (Roche) and PMSF) and sonicated using a Bioruptor (Diagenode) sonicator to produce chromatin with an average length of 500 base pairs. Chromatin was aliquoted and immunopreciptiated using protein A magnetic beads (Dynabeads-Invitrogen 100.01D) coated with 2 μg of antibodies to CBP (santa cruz sc-369), H3-K9ac (abcam ab4441), H3-K9ac and K14 (millipore 06-599), H3-K18ac (abcam ab1191). A mock immunopreciptitation was set-up as a control (No antibody). Immunoprecipitations were carried out overnight. […]
Quantitative PCR was performed using primers to detect the transcriptional start site of the Lmnb1 promoter; forward 5′-[…] […]

acetyl-K18 H3/total H3 = test: Histone H3 Lys18 acetylation in lymphnodes and spinal cord of EAE mice (western blot); assay type: in vivo, mouse; settings: nanomolar 4c (2.4 μg/Kg), day 18 and day 38
Protocol: Quantification of western blots results. The bars show the ratio between acetyl-K18 H3/total H3 in vehicle-treated controls (gray) and 4c-treated mice (white).
One of the difficulties of such an experimental design was the fact that it is difficult to exclude the possibility that the faster recovery was due to decreased inflammation, rather than a direct enhancement of the repair potential of endogenous progenitors in the CNS. To address whether the effect of 2.4 μg/Kg 4c was due to its effect on the peripheral organs or the CNS, histones were extracted from lymphnodes and spinal cords at day 18 (i.e. peak of clinical symptoms) and at day 38 (the end of the recovery period).
These extracts were then processed for western blot for acetylated Lys 18 of histone H3 and total histone H3, the former of which is linked to gene transcriptional activation.

[2] = tested on: histone H3 acetylation in Oli-Neu cells; test: Western blot of histone acetylation in Oli-Neu oligodendrocyte progenitor cell line; assay type: cell-based, mouse; settings: oligodendrocyte-derived cell lines, one day treatment
Protocol: FIG. 4 illustrates the effects of dose-dependent 4c treatment (one day) of immortialized oligodendrocyte progenitors (Oli-Neu) on histone H3 acetylation and α-tubulin assessed by Western blotting using specific antibodies.
Oli-Neu cell line derived from mouse oligodendrocyte progenitors immortalized with the Neu antigen were grown on poly-ornithine-coated culture dishes and maintained proliferating in growth medium ODM plus 1% horse serum as previously described (He et al., 2007). Oli-Neu cells were induced to differentiation in ODM+0.5 mM dybutiryl-cAMP (Sigma) and treated together with CM000149 at indicated concentrations for one day. The cells treated with DMSO were used as the control. Total proteins from cultured cells were extracted using lysis buffer containing 50 mM Hepes (pH 7.4), 150 mM NaCl, 1% NP-40, 1 mM dithiothreitol (DTT), 1 mM EDTA, 0.01% phenylmethylsulfonyl fluoride (PMSF), 1 mM aprotinin and 1 mM leupeptin. Equal amount (40 μg) of proteins were loaded on 12% SDS-PAGE for separation and transferred onto PVDF (Millipore) membrane using a buffer containing 25 mM Tris base, pH 8.3, 192 mM glycine, 20% methanol for 1 hour at 100 V at 4° C. […]

[3] = tested on: p53-induced p21 luciferase activity in U2OS cells; test: p53-dependent p21 luciferase activity in U2OS cells under doxorubicin treatment; assay type: cell-based, human
Protocol: The luciferase activity was normalized to renilla luciferase as a control. The IC50 was calculated using PRISM software.
The activity of the pyrido-indole compounds (FIG. 10) were evaluated for their ability to inhibit p53 activation in human osteosarcoma (U2OS) cells. The p53 activation was induced by DNA damage upon treatment of doxorubicin, and effects of compound treatment were measured by p53-dependent p21 luciferase activity. U2OS Cells were transfected with p21 luciferase (1 μg) and renilla luciferase (100 ng) vectors in six-well plate format using Fugene 6 (Roche). 1.1 μg of vector was incubated with […] of Fugene 6 reagent for 30 min. After 3-4 hours of transfection, cell were treated with compounds overnight, and then exposed to 300 ng of doxorubicin for the next 24 hours. In these experiments, DMSO, transfected cells with empty vectors, and cells without doxorubicin were used as controls. The DMSO concentration was maintained at 0.01%. Transfected cells with doxorubicin treatment were used as a positive control. The luciferase activity was estimated by following the manufacturer's instruction (Promega) in a luminometer. Both active and passive lysis of cells yielded consistent results. The inhibitory activity (IC50) of a small molecule on p21 luciferase activity was obtained from the average of three biological replicates using PRISM software.

Compound: CC(=O)NCCCCn1c2c(c3ccccc31)C(=O)NCC2 [4c, 2,3,4,5-tetrahydro-5-(4′-acetamidobutyl)-1H-pyrido-[4,3-b]indol-1-one]
- acetylation of histone H3 at lysine 18 (H3K18ac) at promoters [1]: but not the acetylation of histone H3 at lysine 18 (H3K18ac) was decreased
- association of CBP with promoters [1]: decreased
- histone acetylation (acetyl-K18 H3/total H3) in spinal cord and lymphnode (acetyl-K18 H3/total H3): in the spinal cord (FIG. 13B), but not in the lymphnode
- global histone acetylation [2]: decrease of global histone acetylation in a dose-dependent manner
- inhibition of p53-induced p21 activation [3]: most potent effect
